According to patent publication US20110040086A1, “Novel Beta-Lactam Antibiotics, Methods for Their Production, and Their Use” (DRITTE PATENTPORTFOLIO BETEILIGUNGSGESELLSCHAFT MB, priority 2007, published 2011):

Test: logP value by HPLC according to Donovan et al.
Details: HPLC with methanol/0.1% phosphoric acid gradient, pH 2
Method: • Operating temperature 18-24° C. • Flow 1.5 mL/min • Linear gradient (methanol/0.1% phosphoric acid pH 2) from 10% to 100% methanol in 9.4 min, equilibrium time between 2 runs 6 min
ca. 0.5 mg of analyte is added to 0.5 ml of a standard solution (440 mg methyl phenyl sulfonate and 380 μl toluene in 150 mL methanol). 2 μl of this sample solution is injected.
Because the distribution coefficients of the two standards running in each test are known, the distribution coefficient of the analytes can be determined from the relationships of the analyte/standard retention times.

chromatographic logP: 2.65
SMILES: CCOC(=O)c1cc(O)ccc1O [2,5-dihydroxybenzoic acid ethylester]
